From patent US6670399B2, “Compounds and methods for modulating cerebral amyloid angiopathy” (Neurochem (International) Limited, priority 1999, dated 2003)

Test system: hAPP transgenic mice
Assay: Extent of CAA in brain sections of hAPP transgenic mice after 8 weeks of treatment, Thioflavin S staining
Format: in vivo
Conditions: for # of animals with CAA: nine week old hAPP transgenic mice
Procedure: The ability of compounds of the invention to inhibit CAA was measured in the following example. Nine week old hAPP transgenic mice were treated for a period of 8 weeks with two different concentrations of a compound of the present invention, 3-amino-1-propanesulfonic acid, sodium salt, 100 and 30 mg/kg. Mice were administered the compound for 8 weeks, after which they were sacrificed and their brains were perfused and processed for histological staining with Thioflavin S. This method may also be used as a screening method for determining activity of a candidate compound for inhibiting CAA.
The extent of CAA in brain sections obtained from these animals was qualitatively determined following staining.

[1] = 100 mg/kg (printed 100 mg · kg), hAPP transgenic mice
[2] = 100 and 30 mg/kg, hAPP transgenic mice, versus vehicle

For `NCCCS(=O)(=O)[O-].[Na+]` [3-amino-1-propanesulfonic acid, sodium salt], the “CAA Severity + (slight deposition), animals with grade/animals with CAA” value (30 mg/kg, hAPP transgenic mice) was 6/10, the “CAA Severity ++ (moderate deposition), animals with grade/animals with CAA” value (30 mg/kg, hAPP transgenic mice) was 4/10 and the CAA animals/total animals (30 mg/kg, hAPP transgenic mice) was 10/11. The “# of animals with CAA” value (30 mg/kg, 11 animals in study) was 10, the “CAA Severity + (slight deposition), animals with grade/animals with CAA” value [1] was 9/10 and the “CAA Severity +++ (severe deposition), animals with grade/animals with CAA” value [1] was 1/10. For the same compound, the CAA animals/total animals [1] was 10/15, the “# of animals with CAA” value (100 mg/kg (printed 100 mg · kg), 15 animals in study) was 10 and the “effect on the severity of the deposition seen in the brain vasculature” value [2] was “showing an effect”. For the same compound, the “reducing the number of mice showing CAA” value [2] was “effective”.
